Here are results for three compounds from ChEMBL document CHEMBL5247575 (J Med Chem, 2018).

≈ marks a conversion by molar mass, not a printed value.

Type in all cases: functional
The subject of one assay is Klebsiella pneumoniae. Put plainly: Antibacterial activity against Klebsiella pneumoniae 1108/1989 producing KPC-3 by broth microdilution method. For orientation: Dilution methods test growth across graded concentrations, often in twofold steps.
Assay [1] relates to Acinetobacter baumannii. Put plainly: Antibacterial activity against ADC deleted Acinetobacter baumannii transfected with pWH1266 OXA-23 by broth microdilution method.
In assay [2] the test system is Acinetobacter baumannii. Put plainly: Synergistic antibacterial activity against Acinetobacter baumannii NCTC 13303 producing OXA-26/51 infected in sc dosed Swiss albino mouse assessed as colistin MIC at 8 ug/ml administered […] post infection and measured upto 7 days. Particulars: NCTC 13303, 168 h, dose 8 µg/ml, time <= 7 day.
Assay [3] relates to Acinetobacter baumannii. The assay can be described thus: Synergistic antibacterial activity against Acinetobacter baumannii NCTC 13303 producing OXA-26/51 infected in sc dosed Swiss albino mouse assessed as meropenem MIC at 8 ug/ml administered […] post infection and measured upto 7 days. To be noted: NCTC 13303, 168 h, dose 8 µg/ml, time <= 7 day.

For the compound `O=C(NNC(=O)[C@@H]1CC[C@@H]2CN1C(=O)N2OS(=O)(=O)O)[C@@H]1CCCNC1` [ZIDEBACTAM], the minimum inhibitory concentration (MIC) (usually the least concentration at which growth counts as inhibited) in the assay on Klebsiella pneumoniae was over 16 µg/mL.

In turn, `O=C(NNC(=O)[C@@H]1CC[C@@H]2CN1C(=O)N2OS(=O)(=O)O)[C@@H]1CCNC1` came in with a minimum inhibitory concentration (MIC) against Acinetobacter baumannii [1] of 16 µg/mL (≈ 42.4 µM).

Regarding `N#C[C@@H]1CC[C@@H]2CN1C(=O)N2OS(=O)(=O)[O-].[Na+]`, the minimal inhibitory concentration (MIC) in the assay with Acinetobacter baumannii [2] is 0.5 µg/mL; with Acinetobacter baumannii [3] it was 256 µg/mL.
